According to publication PMC4736399 (Oxidative Medicine and Cellular Longevity, 2016):
Several values for one entry are separate records, joined by “and”; a condition that tells them apart may be missing. Identical values can stand only once. Counter-ions that a name gives are not always drawn.

Key:
SSAO = target: T1, SSAO (Homo sapiens, UniProt Q16853); assay: Amplex Red fluorometric detection of benzylamine-induced hydrogen peroxide release in human adipose tissue homogenates; type: biochemical; conditions: for effect on benzylamine-induced H2O2 release: tested agent at 1 mM, 1 mM benzylamine, hAT homogenates, Amplex Red
T1 construct: benzylamine oxidation by hAT preparations, naturally rich in SSAO/VAP-1; from tissue; host or cells: human subcutaneous abdominal adipose tissue (hAT), crude homogenate
T1 sequence (Q16853 1-763): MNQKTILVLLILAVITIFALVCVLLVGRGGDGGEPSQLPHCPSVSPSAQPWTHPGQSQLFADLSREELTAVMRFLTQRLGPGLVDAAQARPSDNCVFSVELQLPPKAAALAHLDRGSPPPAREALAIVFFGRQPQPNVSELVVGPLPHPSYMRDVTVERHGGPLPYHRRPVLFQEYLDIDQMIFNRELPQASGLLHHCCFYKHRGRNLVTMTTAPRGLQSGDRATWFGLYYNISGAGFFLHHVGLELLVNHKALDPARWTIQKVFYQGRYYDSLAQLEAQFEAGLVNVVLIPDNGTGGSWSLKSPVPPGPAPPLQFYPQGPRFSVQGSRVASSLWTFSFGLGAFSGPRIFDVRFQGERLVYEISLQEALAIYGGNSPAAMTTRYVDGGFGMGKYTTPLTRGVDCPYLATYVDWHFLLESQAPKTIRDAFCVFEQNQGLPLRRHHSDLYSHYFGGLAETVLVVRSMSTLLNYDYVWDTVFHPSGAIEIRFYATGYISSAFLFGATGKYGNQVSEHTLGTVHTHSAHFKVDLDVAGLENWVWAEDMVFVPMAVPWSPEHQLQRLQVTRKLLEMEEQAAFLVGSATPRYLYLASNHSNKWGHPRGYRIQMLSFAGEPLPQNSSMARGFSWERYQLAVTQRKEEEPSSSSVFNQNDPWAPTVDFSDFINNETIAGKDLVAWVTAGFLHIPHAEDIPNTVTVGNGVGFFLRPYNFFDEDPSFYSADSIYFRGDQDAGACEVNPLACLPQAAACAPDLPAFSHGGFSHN
Method: (§1) Oxidase activity was measured using the fluorescent probe Amplex Red (10-acetyl-3,7-dihydrophenoxazine) designed for the detection of hydrogen peroxide in biological milieu. Assays were performed accordingly to our previous descriptions, which corresponded to slight modifications from the adaptation of such fluorometric method for MAO activity determination. Briefly, hydrogen peroxide release was quantified owing to a chromogenic mixture containing 40 μM Amplex Red and 4 U/mL horseradish peroxidase and to the parallel use of hydrogen peroxide standard solutions ranging from 0.05 to 5 μM (final concentrations). Thawed hAT samples were homogenized in 200 mM phosphate buffer (pH 7.4) during 30 sec with a homogenizer Tissue Master-125 (Omni International, Kennesaw, GA, USA) just prior to the determination of their amine oxidase activity, as previously reported, except that no antiprotease cocktail was added. Homogenates were distributed in 96-well dark microplates (at 50 ± 5 μg protein/well) and incubated at 37°C in the dark for at least 30 min in 200 μL final volume after a 30 min preincubation without (control) or with 1 mM pargyline or semicarbazide to inhibit MAO or SSAO activity, respectively, or even with both reference inhibitors to abolish all AO activity. All phenolic compounds tested for their inhibitory properties were also added during this preincubation step. Tyramine or benzylamine was added to the medium in order to obtain 1 mM concentration and to serve as substrates for AO activities, as already stated.
(§2) Spontaneous hydrogen peroxide formation by homogenates of thawed material was also quantified without any addition of exogenous amine or inhibitor and defined as basal release. The influence of chemical compounds or biochemical agents on the fluorescence readouts generated by the hydrogen peroxide standard curve was also performed without any presence of hAT in a set of experiments called “without biological material.” In all cases, fluorescence data (ex/em: 540/590 nm) were collected on a Fluoroskan Ascent plate reader (ThermoLabsystems, Finland).
Fluorescence readouts after 30 min incubation were substracted from corresponding values at t0 and net increase was set at 100% for 1 mM benzylamine alone. (a) Pargyline (MAO, dark squares) or semicarbazide (SSAO inhibitor, open squares) was present at indicated final concentrations, while their combination was tested at 1 mM (P + S, black triangle). Mean ± SEM of at least 6 homogenates. (b) The phenolic compounds were tested in parallel at the indicated final concentrations. Means ± SEM of 8 to 12 homogenates.

[1] = Amplex Red-based fluorescence of 5 μM hydrogen peroxide without biological material; conditions: read-out: EC50 for lowering the fluorescent signal elicited by 5 μM hydrogen peroxide; without any human biological material, Amplex Red chromogenic mixture
Method: as §2
Figure 4 Influence of amine oxidase substrates or inhibitors and phenolic compounds on fluorescent-based detection of hydrogen peroxide. The chromogenic mixture used for Amplex Red-based fluorometric detection of hydrogen peroxide was incubated with 5 μM H2O2 alone (control set at 100%) or in the presence of the indicated final concentrations of tested chemicals. […] Means ± SEM of 7 measurements without any human material.

MAO [2] = assay: Radiochemical assay of [14C]-tyramine oxidation by hAT homogenates; type: biochemical, human; conditions: 1 mM [14C]-tyramine, 30 min
Method: (§3) Samples of adipose tissue were homogenized as described above. 50 μL of crude homogenates were then incubated for 30 min at 37°C in 200 μL of 200 mM phosphate buffer in the presence of radiolabelled amine after 30 min preincubation without or with inhibitor(s). MAO-dependent oxidation was defined as sensitive to inhibition by 1 mM pargyline, whereas SSAO-dependent oxidation was abolished by 1 mM semicarbazide. Assays were started by addition of the labelled substrate and stopped by adding 50 μL of 4 M HCl. Reaction products of amine oxidation were extracted by 1 mL of organic solvent (toluene/ethyl acetate, 1/1 v/v), according to Tipton's method. Then, 0.7 mL aliquots of the organic phase were counted for radioactivity. Maximal velocity and optimal conditions for determination of amine oxidase activities have been already detailed for human adipocytes, cultured preadipose cells, or hAT homogenates. Thus, inhibition studies were performed only under conditions reaching maximal oxidation velocity, that is, corresponding to the use of tyramine or benzylamine isotopic dilutions giving 1 mM final concentration and reaching approximately 640000 dpm/50 μL for [^14C]-tyramine (provided either by PerkinElmer, Evry, France, or by Sigma-Aldrich) or 200000 dpm/50 μL for [^14C]-benzylamine (NEC 835050UC purchased from PerkinElmer). The radioactivity extracted in the organic phase at time 0 (t0) represented less than 0.5% of the total radioactivity/tube of each labelled amine and was subtracted to all counts with tyramine and benzylamine oxidation without inhibitor averaging 14160 ± 5620 dpm (n = 16) and 15800 ± 1770 dpm (n = 12), respectively. These absolute values, which varied substantially from one individual to another, were set as 100% reference in each subject for the calculation of percentages of inhibition.
Figure 5 Influence of phenolic compounds and MAO inhibitors or SSAO inhibitors on tyramine oxidation by hAT. The production of radiolabelled aldehydes resulting from the 30 min incubation of fat tissue homogenates with 1 mM isotopic dilution of [^14C]-tyramine was set at 100% in the absence of added inhibitor, while the background radioactivity detected at t0 was set at 0%. (a) Inhibition by pargyline only of MAO-dependent tyramine oxidation. (b) Influence of phenolic compounds on tyramine oxidation. Each point is the mean ± SEM of 8 (inhibitors) to 12 (phenolic compounds) homogenates.

SSAO/VAP-1 = target: T2, SSAO/VAP-1 (Homo sapiens, UniProt Q16853); assay: Radiochemical assay of [14C]-benzylamine oxidation by hAT homogenates; type: biochemical; conditions: 1 mM [14C]-benzylamine, 30 min, up to 1 mM
T2 construct: benzylamine oxidation by hAT preparations, naturally rich in SSAO/VAP-1; from tissue; host or cells: human subcutaneous abdominal adipose tissue (hAT), crude homogenate
T2 sequence (Q16853 1-763): T1 sequence (Q16853 1-763)
Method: as §3
Figure 6 Influence of phenolic compounds and MAO inhibitors or SSAO inhibitors on benzylamine oxidation by hAT. (a) Thirty-minute oxidation of 1 mM [^14C]-benzylamine by homogenates generated amounts of radiolabelled benzaldehyde that were separated by extraction as described in Materials and Methods and set at 100% signal (control), while 0% corresponded to the extractible radioactivity at t0. The reference MAO inhibitors (pargyline) or SSAO (semicarbazide) inhibitors were present, separately or in combination at 1 mM, […] before the addition of the radiolabelled substrate. […] Each point is the mean ± SEM of 8 homogenates.

human adipocytes = assay: [3H]-2-deoxy-glucose uptake in freshly isolated adipocytes; type: cell-based; conditions: phenolic compound 100 μM (P + S 1 mM each), benzylamine stimulation, 45 min incubation
Method: To determine glucose transport activity, hAT was grossly minced and digested at 37°C under shaking in 20 mL of Krebs-Ringer medium containing 0.015 mg/mL liberase (type TM, Roche Diagnostics), 15 mM sodium bicarbonate, 10 mM HEPES, and 3.5% bovine serum albumin. Buoyant adipocytes were separated by filtration through nylon screen and carefully washed in the same medium at pH 7.4 without liberase to obtain adipocyte suspensions as already described. Freshly isolated adipocytes were incubated for 45 min with the tested agents just before [^3H]-2-deoxy-glucose uptake assays (PerkinElmer) performed in 10 min at 37°C in plasticware as already described.
Figure 9 Effects of phenolic compounds, benzylamine, and insulin on glucose transport in human adipocytes. Freshly isolated adipocytes were incubated for 45 min without (basal) or with insulin 100 nM (ins.) or with benzylamine and phenolic compounds at the indicated doses. Then 2-DG uptake assays were performed on 10 min as detailed in Section 2. […] Basal, insulin-stimulated, or benzylamine-stimulated 2-DG uptake was tested without (no addition, open columns) or with pargyline + semicarbazide at 1 mM each (P + S, dark columns). Mean ± SEM of 39 cases. Different from basal alone at ^### P < 0.001. Different from benzylamine alone at ^∗∗∗ P < 0.001. (b) Insulin was used as the agent of reference for maximal transport stimulation, set at 100%. Benzylamine was tested at 1 mM alone (control, open column) or in the presence of 100 μM of the indicated phenolic compounds. Mean ± SEM of 7 observations. Different from benzylamine alone at ^∗ P < 0.05 and ^∗∗ P < 0.01.

MAO-A = test system: MAO-A; parameters: method as in PMID 19013512; conditions: at 10-100 μM, peroxidase-based detection of hydrogen peroxide; cited from earlier work
MAO [3] = assay: Amplex Red fluorometric detection of tyramine-induced hydrogen peroxide release in human adipose tissue homogenates; type: biochemical; conditions: for effect on tyramine-induced H2O2 release: 1 mM tyramine, hAT homogenates, Amplex Red, inhibitors 1 μM to 1 mM
Method: as §1, §2

| Structure (SMILES) | effect on benzylamine-induced H2O2 release (SSAO) | EC50 [1] | effect on [14C]-tyramine oxidation (MAO [2]) | effect on SSAO-mediated [14C]-benzylamine oxidation (SSAO/VAP-1) | effect on benzylamine-stimulated deoxyglucose uptake (human adipocytes) | also measured |
| --- | --- | --- | --- | --- | --- | --- |
| O=C(O)/C=C/c1ccc(O)c(O)c1 [caffeic acid] | abolished benzylamine-induced signal | 3.5 µM | did not abolish enzyme activity | without preventing benzylamine degradation | No clear-cut inhibition | – |
| NCc1ccccc1 [benzylamine, benzylamine hydrochloride] | – | – | – | – | – | effect on hydrogen peroxide production by hAT preparations (SSAO; 1 mM benzylamine as substrate, 30 min, versus basal): significantly increased the amount of detected hydrogen peroxide |
| O=c1c(O)c(-c2ccc(O)c(O)c2)oc2cc(O)cc(O)c12 [quercetin] | impaired partially the benzylamine-induced signal | 2 µM | – | without preventing benzylamine degradation | counteracted the effect of 1 mM benzylamine | MAO-A inhibition, in words (MAO-A): inhibit MAO-A in a complete manner |
| COc1cc(/C=C/c2ccc(O)cc2)cc(OC)c1 [pterostilbene] | impaired partially the benzylamine-induced signal | 5.2 µM | did not abolish enzyme activity | without preventing benzylamine degradation | counteracted the effect of 1 mM benzylamine | – |
| Oc1ccc(/C=C/c2cc(O)cc(O)c2)cc1 [resveratrol, trans-resveratrol] | abolished benzylamine-induced signal | – | – | without preventing benzylamine degradation | counteracted the effect of 1 mM benzylamine | – |
| NCCc1ccc(O)cc1 [tyramine, tyramine hydrochloride] | – | – | – | – | – | effect on hydrogen peroxide production by hAT preparations (MAO [3]; 1 mM tyramine as substrate, 30 min, versus basal): to a lesser extent, significantly increased the amount of detected hydrogen peroxide |
| NNC(N)=O [semicarbazide] | inhibited | – | virtually unable to abolish this activity | eradicated the generation of labelled benzaldehyde | – | effect on tyramine-induced H2O2 release (MAO [3]): totally inefficient; proportion of benzylamine-induced H2O2 signal left unaltered (SSAO; 1 mM semicarbazide alone or with 1 mM pargyline, 1 mM benzylamine = 100%): 20% and 15–20% |
| C#CCN(C)Cc1ccccc1 [pargyline] | resistant | – | inhibited | could not prevent this type of amine metabolism | – | proportion of tyramine-induced H2O2 production left unaltered (MAO [3]; 1 mM pargyline alone or with 1 mM semicarbazide, 1 mM tyramine = 100%): approximately 30%; effect on tyramine-induced H2O2 release (MAO [3]): inhibited dose-dependently |
